Source: patent US20240109900A1, “AZABICYCLIC SHP2 INHIBITORS” (IRBM S.P.A., priority 2021, published 2024)
Where two headings read alike, the source gives them in different places.

Tests used:
[1] = system: ERK phosphorylation in KYSE-520 cells; assay: Phospho-ERK cellular assay; format: cell-based; conditions: Homo sapiens, KYSE-520, 2 h, read-out: PERK IC50
In short: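 TR-FRET read-out of ERK1/2 Thr202/Tyr204 phosphorylation was taken after overnight antibody incubation at room temperature. Before that, KYSE-520 cells were treated 2 h at 37 °C with compound dilutions and lysed 30 min. Percent inhibition relative to vehicle and cell-free wells was fitted four-parametrically to give IC50.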

[2] = molecular target: SHP-2 enzyme (Met1-Leu525) (Homo sapiens (Human), UniProt Q06124); assay: SHP2 inhibition enzymatic assay; format: biochemical; conditions: 75 μM DiFMUP substrate
Chain of SHP-2 enzyme (Met1-Leu525) (Q06124 1-525): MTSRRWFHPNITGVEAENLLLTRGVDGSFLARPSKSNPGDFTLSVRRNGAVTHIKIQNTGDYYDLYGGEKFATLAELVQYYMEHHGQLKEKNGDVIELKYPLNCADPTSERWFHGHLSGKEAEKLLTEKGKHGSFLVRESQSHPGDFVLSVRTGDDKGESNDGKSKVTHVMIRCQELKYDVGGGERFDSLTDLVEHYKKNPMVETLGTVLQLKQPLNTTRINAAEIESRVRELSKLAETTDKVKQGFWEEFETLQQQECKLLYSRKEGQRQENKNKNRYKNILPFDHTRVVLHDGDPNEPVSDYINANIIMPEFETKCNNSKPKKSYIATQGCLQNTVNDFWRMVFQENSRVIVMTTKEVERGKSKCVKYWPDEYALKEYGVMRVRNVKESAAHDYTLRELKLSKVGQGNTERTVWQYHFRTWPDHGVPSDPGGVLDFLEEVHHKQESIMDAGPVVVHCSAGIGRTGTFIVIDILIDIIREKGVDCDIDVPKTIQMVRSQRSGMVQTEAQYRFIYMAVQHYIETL
In short: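 SHP-2 (Met1-Leu525), 0.5 nM, activated with 500 nM IRS1 bis-phosphopeptide, preincubated 30 min with compounds in HEPES pH 7.2 buffer with 5 mM DTT. 75 μM DiFMUP added for 30 min at room temperature, stopped with bpV; fluorescence read. IC50 from four-parameter logistic fit of % inhibition.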

[3] = KYSE-520 cells, 2 h at 37° C., phospho-ERK1/2 (Thr202/Tyr204) TR-FRET
[4] = 0.5 nM SHP-2 activated by 500 nM IRS1 peptide, read-out: SHP2wt-IC50

Row | Structure (SMILES) | IC50 [1, 3] [nM] | IC50 [2, 4] [nM] | IC50 [1] [nM] | IC50 ([2]; SHP2wt-IC50, 0.5 nM SHP-2 activated by 500 nM IRS1 peptide) [nM]
1 | Cc1cc([C@@]2(CN)[C@@H]3CCN(c4cnc5c(-c6csc7ncccc67)n[nH]c5n4)C[C@@H]32)no1 [Example 113, ((1S,6R,7S)-7-(5-methylisoxazol-3-yl)-3-(3-(thieno[2,3-b]pyridin-3-yl)-1H-pyrazolo[3,4-b]pyrazin-6-yl)-3-azabicyclo[4.1.0]heptan-7-yl)methanamine] | < 1000 | < 500 | – | –
2 | COC(=O)c1ccc(-c2n[nH]c3nc(N4CC[C@@H]5[C@H](C4)[C@@]5(CN)c4ccccc4F)cnc23)c(Cl)c1 [Example 223, methyl 4-(6-((1S,6R,7R)-7-(aminomethyl)-7-(2-fluorophenyl)-3-azabicyclo[4.1.0]heptan-3-yl)-1H-pyrazolo[3,4-b]pyrazin-3-yl)-3-chlorobenzoate] | < 1000 | < 500 | – | –
3 | Cc1csc(C2(CN)C3CCN(c4cnc5c(-c6ccc(S(=O)(=O)F)c7ccccc67)n[nH]c5n4)CC32)n1 (centres unmarked) [Example 443, 4-(6-(7-(aminomethyl)-7-(4-methylthiazol-2-yl)-3-azabicyclo[4.1.0]heptan-3-yl)-1H-pyrazolo[3,4-b]pyrazin-3-yl)naphthalene-1-sulfonyl fluoride] | – | – | < 1000 | 500 to 3000
4 | NC[C@]1(c2cccc(F)c2F)[C@@H]2CCN(c3cnc4c(-c5ccc(C(=O)O)c6ncccc56)n[nH]c4n3)C[C@@H]21 [Example 266, 5-(6-((1S,6R,7R)-7-(aminomethyl)-7-(2,3-difluorophenyl)-3-azabicyclo[4.1.0]heptan-3-yl)-1H-pyrazolo[3,4-b]pyrazin-3-yl)quinoline-8-carboxylic acid] | < 1000 | < 500 | – | –
5 | COc1c2c(Cl)c(-c3n[nH]c4nc(N5CC[C@@H]6[C@H](C5)[C@@]6(CN)c5cc(C)on5)cnc34)ccc2nn1C [Example 109, ((1S,6R,7S)-3-(3-(4-chloro-3-methoxy-2-methyl-2H-indazol-5-yl)-1H-pyrazolo[3,4-b]pyrazin-6-yl)-7-(5-methylisoxazol-3-yl)-3-azabicyclo[4.1.0]heptan-7-yl)methanamine] | < 1000 | < 500 | – | –
6 | Cc1cc([C@@]2(CN)[C@@H]3CCN(c4cnc5c(-c6ccnc7ncccc67)n[nH]c5n4)C[C@@H]32)no1 [Example 38, ((1S,6R,7S)-3-(3-(1,8-naphthyridin-4-yl)-1H-pyrazolo[3,4-b]pyrazin-6-yl)-7-(5-methylisoxazol-3-yl)-3-azabicyclo[4.1.0]heptan-7-yl)methanamine] | < 1000 | < 500 | – | –
7 | NC[C@]1(c2ccccc2F)[C@@H]2CCN(c3cnc(Sc4ccnc5ccccc45)c(N)n3)C[C@@H]21 [Example 524, 6-((1S,6R,7R)-7-(aminomethyl)-7-(2-fluorophenyl)-3-azabicyclo[4.1.0]heptan-3-yl)-3-(quinolin-4-ylthio)pyrazin-2-amine] | > 5000 | < 500 | – | –
8 | NCC1(c2ccsc2)C2CCN(c3nc4nc(Sc5cccnc5C(F)(F)F)cnc4[nH]3)CC21 (centres unmarked) [Example 64, (7-(thiophen-3-yl)-3-(5-((2-(trifluoromethyl)pyridin-3-yl)thio)-1H-imidazo[4,5-b]pyrazin-2-yl)-3-azabicyclo[4.1.0]heptan-7-yl)methanamine] | 1000 to 5000 | < 500 | – | –
9 | Cc1cc(C2(CN)C3CCN(c4cnc5c(-c6cccc7ncccc67)n[nH]c5n4)CC32)no1 (centres unmarked) [Example 9, (7-(5-methylisoxazol-3-yl)-3-(3-(quinolin-5-yl)-1H-pyrazolo[3,4-b]pyrazin-6-yl)-3-azabicyclo[4.1.0]heptan-7-yl)methanamine] | < 1000 | < 500 | – | –

Continued, in another order:

Row | IC50 [1, 3] [nM] | IC50 [2, 4] [nM] | Structure (SMILES) | IC50 [1] [nM] | IC50 ([2]; SHP2wt-IC50, 0.5 nM SHP-2 activated by 500 nM IRS1 peptide) [nM]
10 | < 1000 | < 500 | NCC1(c2ccon2)C2CCN(c3cnc4c(-c5cccc(Cl)c5Cl)n[nH]c4n3)CC21 (centres unmarked) [Example 99, (3-(3-(2,3-dichlorophenyl)-1H-pyrazolo[3,4-b]pyrazin-6-yl)-7-(isoxazol-3-yl)-3-azabicyclo[4.1.0]heptan-7-yl)methanamine] | – | –
11 | < 1000 | < 500 | NC[C@]1(c2ccccc2F)[C@@H]2CCN(c3cnc4c(-c5cc6cccnc6cc5F)n[nH]c4n3)C[C@@H]21 [Example 175, ((1S,6R,7R)-7-(2-fluorophenyl)-3-(3-(7-fluoroquinolin-6-yl)-1H-pyrazolo[3,4-b]pyrazin-6-yl)-3-azabicyclo[4.1.0]heptan-7-yl)methanamine] | – | –
12 | < 1000 | < 500 | Cc1csc(C2(CN)C3CCN(c4nc5[nH]nc(-c6cccc(Cl)c6Cl)c5nc4CO)CC32)n1 (centres unmarked) [Example 102, (6-(7-(aminomethyl)-7-(4-methylthiazol-2-yl)-3-azabicyclo[4.1.0]heptan-3-yl)-3-(2,3-dichlorophenyl)-1H-pyrazolo[3,4-b]pyrazin-5-yl)methanol] | – | –
13 | < 1000 | < 500 | NC[C@]1(c2ccccc2F)[C@@H]2CCN(c3cnc4c(-c5ccc6n[nH]cc6c5Cl)n[nH]c4n3)C[C@@H]21 [Example 243, ((1S,6R,7R)-3-(3-(4-chloro-2H-indazol-5-yl)-1H-pyrazolo[3,4-b]pyrazin-6-yl)-7-(2-fluorophenyl)-3-azabicyclo[4.1.0]heptan-7-yl)methanamine] | – | –
14 | < 1000 | < 500 | Cc1cc(C2(CN)C3CCN(c4cnc5c(-c6ccc(C#N)c7ncccc67)n[nH]c5n4)CC32)no1 (centres unmarked) [Example 32, 5-(6-(7-(aminomethyl)-7-(5-methylisoxazol-3-yl)-3-azabicyclo[4.1.0]heptan-3-yl)-1H-pyrazolo[3,4-b]pyrazin-3-yl)quinoline-8-carbonitrile] | – | –
15 | < 1000 | < 500 | CN1C(=O)Cc2cc(-c3n[nH]c4nc(N5CC[C@@H]6[C@H](C5)[C@@]6(CN)c5ccccc5F)cnc34)ccc21 [Example 217, 5-(6-((1S,6R,7R)-7-(aminomethyl)-7-(2-fluorophenyl)-3-azabicyclo[4.1.0]heptan-3-yl)-1H-pyrazolo[3,4-b]pyrazin-3-yl)-1-methylindolin-2-one] | – | –
16 | > 5000 | < 500 | NC[C@]1(c2ccccc2F)[C@@H]2CCN(c3cnc4c(-c5ccc(C(=O)O)c(Cl)c5Cl)n[nH]c4n3)C[C@@H]21 [Example 227, 4-(6-((1S,6R,7R)-7-(aminomethyl)-7-(2-fluorophenyl)-3-azabicyclo[4.1.0]heptan-3-yl)-1H-pyrazolo[3,4-b]pyrazin-3-yl)-2,3-dichlorobenzoic acid] | – | –
17 | < 1000 | < 500 | NC[C@]1(c2ccccc2F)[C@@H]2CCN(c3cnc4c(-c5nccc6ncccc56)n[nH]c4n3)C[C@@H]21 [Example 153, ((1S,6R,7R)-3-(3-(1,6-naphthyridin-5-yl)-1H-pyrazolo[3,4-b]pyrazin-6-yl)-7-(2-fluorophenyl)-3-azabicyclo[4.1.0]heptan-7-yl)methanamine] | – | –
18 | < 1000 | < 500 | Cn1cc2c(Cl)c(Sc3ccc4nc(N5CC[C@@H]6[C@H](C5)[C@@]6(CN)c5ccccc5F)cnc4n3)ccc2n1 [Example 400, ((1S,6R,7R)-3-(6-((4-chloro-2-methyl-2H-indazol-5-yl)thio)pyrido[2,3-b]pyrazin-2-yl)-7-(2-fluorophenyl)-3-azabicyclo[4.1.0]heptan-7-yl)methanamine] | – | –
19 | < 1000 | 500 to 3000 | COc1ccc2ncccc2c1-c1n[nH]c2nc(N3CC[C@@H]4[C@H](C3)[C@@]4(CN)c3cc(C)on3)cnc12 [Example 115, ((1S,6R,7S)-3-(3-(6-methoxyquinolin-5-yl)-1H-pyrazolo[3,4-b]pyrazin-6-yl)-7-(5-methylisoxazol-3-yl)-3-azabicyclo[4.1.0]heptan-7-yl)methanamine] | – | –
